The target in data set [1] is T1, NMDA-rich brain regions (Rattus norvegicus, UniProt P35439+Q00960).
T1 construct: from tissue; host or cells: brain of living Wistar rats (in vivo PET)
In words: PET scans of rat brain with [11C]WMS1405. Type of data set: in vivo, Wistar rats. As to conditions: for accumulation in rat brain (PET): i.v. tail vein, 0 to 60 min p.i., baseline. The procedure: (§1) Wistar rats (331-353 g) were under isoflurane anaesthesia (2.5-5% in oxygen/air 1/1) for all procedures and temperature and respiration were controlled with warm air and by adjusting the isoflurane dosage. A dynamic PET scan was started with a calibrated VISTA eXplore/Super Argus PET/CT scanner (Sedecal, Madrid, Sprain; axial field of view 4.8 cm) and at time zero, 32-52 MBq (0.44-0.78 nmol/kg, 250-300 μL) [^11C]NB1 were injected via a tail vein.

A further data set concerns the target T2, GluN1/GluN2B NTD (Rattus norvegicus, UniProt P35439+Q00960).
T2 construct: horizontal rat brain slices (20 μm) of a male Wistar rat; from tissue; host or cells: rat brain slices (male Wistar rat)
The data set is described as follows: In vitro autoradiography of [11C]NB1 on rat brain slices. Type of data set: binding. To be noted: for blocking of [11C]NB1 binding to rat brain slices: 10 μM competitor with 5.4 nM [11C]NB1. The procedure:
After incubation, the slices were washed with HEPES/BSA for 8 min and twice with HEPES buffer for 3 min followed by two 5-second rinses with water. The dried slices were exposed for 20 min to a phosphorimager plate, read in a phosphorimager BAS5000 (Fuji, Tokyo, Japan) and analyzed with the software AIDA v. 4.5 (Raytest Isotopenmessgerate GmbH, Germany).

Data set [2] deals with T3, signal receptor (Rattus norvegicus, UniProt Q9R0C9). The data set is described as follows: In vitro displacement of [3H](+)pentazocine from rat brain membranes. Type of data set: binding. More on the design: from tissue; host or cells: rat brain membranes. The procedure: (§2) FIG. 4A. […] One out of three independent experiments. Triplicate incubations with standard deviations. Solid line, fit IC50 function. Upper broken line, binding of 2.9 nM [^3H](+)pentazocine alone. […] Baseline and blockade (circles) as in FIGS. 2B and 2C. Squares, co-injection of 2.5 mg/kg (+)-pentazocine.
T3 sequence (Q9R0C9 whole entry): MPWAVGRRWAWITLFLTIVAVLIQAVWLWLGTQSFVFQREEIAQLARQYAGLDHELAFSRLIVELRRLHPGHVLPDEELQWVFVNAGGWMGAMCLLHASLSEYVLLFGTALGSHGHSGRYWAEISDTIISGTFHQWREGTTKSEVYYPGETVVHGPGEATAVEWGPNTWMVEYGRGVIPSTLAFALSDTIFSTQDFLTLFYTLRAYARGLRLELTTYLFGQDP
In vitro binding study with [^3H](+)pentazocine, a ligand for signal receptor.

Data set [3] has as its target signal receptor. As to conditions: read-out: Kd at signal receptor; Lever et al., Synapse 2006; cited from earlier work.
The target of data set [4] is T1, NMDA-rich brain regions. In words: PET scans of rat brain with [18F]WMS1410. The format is in vivo, Wister rat. The procedure:
as §1
Similar PET experimental procedure as mentioned above for [^11C]WMS1405 was applied for imaging [^18F]WMS1410 with Wister rat.

Data set [5] relates to GluN2B(C,D)-containing NMDA receptors. In words: PET receptor occupancy after eliprodil administration at various doses. The format is in vivo, rat.
The conditions of data set [6]: Garrigou-Cadenne et al. 1995; cited from earlier work.
Data set [7] deals with T3, signal receptor. To be noted: co-injection; (+)-pentazocine 2.5 mg/kg, haloperidol 0.13 mg/kg. The procedure:
as §2

T1 sequence (Q00960 27-1482, other chains not shown): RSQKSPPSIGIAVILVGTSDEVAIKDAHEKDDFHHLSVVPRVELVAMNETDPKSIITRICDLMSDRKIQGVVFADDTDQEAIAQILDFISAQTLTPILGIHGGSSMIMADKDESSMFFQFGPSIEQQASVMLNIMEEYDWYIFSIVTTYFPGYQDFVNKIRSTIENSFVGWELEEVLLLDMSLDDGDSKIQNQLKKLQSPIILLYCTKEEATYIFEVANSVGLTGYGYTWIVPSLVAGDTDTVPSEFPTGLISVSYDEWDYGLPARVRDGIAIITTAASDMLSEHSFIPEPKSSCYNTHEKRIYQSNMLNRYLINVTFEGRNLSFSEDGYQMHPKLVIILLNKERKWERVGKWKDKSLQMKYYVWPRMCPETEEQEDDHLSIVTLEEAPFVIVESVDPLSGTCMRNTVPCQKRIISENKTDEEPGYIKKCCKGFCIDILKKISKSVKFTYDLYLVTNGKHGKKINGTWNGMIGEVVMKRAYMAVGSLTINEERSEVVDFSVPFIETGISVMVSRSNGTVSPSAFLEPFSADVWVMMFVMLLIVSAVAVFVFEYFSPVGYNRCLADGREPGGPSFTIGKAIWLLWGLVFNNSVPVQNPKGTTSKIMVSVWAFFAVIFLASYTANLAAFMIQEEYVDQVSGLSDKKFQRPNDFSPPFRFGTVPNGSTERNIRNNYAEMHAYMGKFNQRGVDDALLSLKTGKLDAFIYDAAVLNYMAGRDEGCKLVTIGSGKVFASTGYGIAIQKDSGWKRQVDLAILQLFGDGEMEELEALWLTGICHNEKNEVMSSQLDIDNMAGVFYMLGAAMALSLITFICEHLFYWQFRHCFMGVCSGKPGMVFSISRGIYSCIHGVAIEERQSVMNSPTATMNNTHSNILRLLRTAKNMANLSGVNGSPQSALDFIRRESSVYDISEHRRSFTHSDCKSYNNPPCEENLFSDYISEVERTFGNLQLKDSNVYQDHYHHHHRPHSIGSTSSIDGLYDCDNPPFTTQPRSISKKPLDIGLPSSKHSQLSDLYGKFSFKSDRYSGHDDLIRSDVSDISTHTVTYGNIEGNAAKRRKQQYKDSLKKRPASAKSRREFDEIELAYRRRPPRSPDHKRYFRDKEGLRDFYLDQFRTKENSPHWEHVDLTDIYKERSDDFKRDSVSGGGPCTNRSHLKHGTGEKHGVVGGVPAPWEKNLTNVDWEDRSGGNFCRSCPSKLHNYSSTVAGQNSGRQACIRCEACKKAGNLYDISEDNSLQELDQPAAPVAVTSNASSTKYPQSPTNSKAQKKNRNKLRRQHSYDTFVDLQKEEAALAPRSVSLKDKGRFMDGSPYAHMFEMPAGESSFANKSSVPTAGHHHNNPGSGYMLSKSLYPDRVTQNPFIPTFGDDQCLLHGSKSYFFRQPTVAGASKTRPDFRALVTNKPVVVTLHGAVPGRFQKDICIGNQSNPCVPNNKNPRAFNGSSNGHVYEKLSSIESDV
T2 sequence (Q00960 27-1482, other chains not shown): as above

Regarding `[11CH3]Oc1ccc2c(c1)CCN(CCCCc1ccccc1)CC2O` (single isomer, unassigned; stereoisomer b) [Stereoisomer B(+)], the “accumulation in rat brain (PET)” value at NMDA-rich brain regions [1] is on record as “accumulates more than the racemate”.
Turning to `C[C@H](NC(c1cccc2[nH]c(=O)c(=O)[nH]c12)P(=O)(O)O)c1ccc(Br)cc1` (stereo partly shown) [AAM077], the “blocking of [11C]NB1 binding to rat brain slices” value at GluN1/GluN2B NTD was “not”.
Turning to `COc1ccc2c(c1)CCN(CCCCc1ccccc1)CC2O` (stereo not shown) [WMS1405], the Ki at signal receptor [2] (2.9 nM [3H](+)pentazocine, rat brain membranes) was 1 to 10 µM. Also, the “competition for the binding of (+)pentazocine to signal receptor” value on signal receptor [2] (in vitro) is “does not compete”.
Regarding `CC(C)=CCN1CC[C@]2(C)c3cc(O)ccc3C[C@H]1[C@H]2C` [[^3H](+)pentazocine], the Kd at signal receptor [3] was 0.0016 µM.
As for `[11CH3]Oc1ccc2c(c1)CCN(CCCCc1ccccc1)CC2O` (stereo not shown) [[^11C]WMS1405], the “binding to rat brain slices by in vitro autoradiography” value at GluN1/GluN2B NTD (5.4 nM tracer, 30 min, room temperature, baseline) is recorded as “high binding in most brain regions”. On NMDA-rich brain regions [1], the “accumulation in rat brain (PET)” value is reported as “accumulates in NMDA-rich brain regions”.
On to `OC1CN(CCCCc2ccccc2)CCc2cc(OCC[18F])ccc21` (stereo not shown) [[^18F]WMS1410], for which, at NMDA-rich brain regions [4] (baseline), the “accumulation in rat brain (PET)” value is given as “accumulates in NMDA-rich brain regions”.
Regarding `OC(CN1CCC(Cc2ccc(F)cc2)CC1)c1ccc(Cl)cc1` (stereo not shown) [eliprodil], on GluN1/GluN2B NTD, the “blocking of [11C]NB1 binding to rat brain slices” value is on record as “blocked”. Moreover, the “blockade and displacement of [11C]WMS1405 in rat brain (PET)” value on NMDA-rich brain regions [1] (eliprodil 1 mg/kg, displacement 20 min after tracer injection) is “blocked and displaced”. Further, the “blockade of [18F]WMS1410 in rat brain (PET)” value on NMDA-rich brain regions [4] (eliprodil 1 mg/kg co-injection) is reported as “blocked”. This compound also yielded a receptor occupancy in data set [5] (at 70 μg/kg) of 99%. The “dose for 50% receptor occupancy” value in data set [5] (brain stem (GluN2B-poor but GluN2D-rich)) was determined as 7.7 nmol/kg; in data set [5] (midbrain (GluN2B-poor but GluN2D-rich)) it was 6.2 nmol/kg. Besides, the brain/plasma ratio entry in data set [6] was “about 20”.
`CC(C)=CCN1CCC2(C)c3cc(O)ccc3CC1C2C` (stereo not shown) [pentazocine]: the “reduction of [11C]WMS1405 binding in vivo” value at signal receptor [7] was “reduced [^11C]WMS1405 binding to similar levels as under blocking conditions with eliprodil”.

These data come from patent publication US20170224852A1, “BENZAZEPIN-1-OL-DERIVED PET LIGANDS WITH HIGH IN VIVO NMDA SPECIFICITY” (ETH ZURICH, priority 2016, published 2017).
